The source of these data is BindingDB's records for patent US9457039 (Merck Sharp & Dohme Corp, 2016).

What is called IC50 is the concentration that gives 50% inhibition. Low readings indicate greater potency in that assay, high ones weaker potency in that assay.

The target in this assay is T1, Genome polyprotein [2420-3010] (HCV, UniProt P26663).
T1 construct: 2420-3010
T1 sequence (P26663 2420-3010): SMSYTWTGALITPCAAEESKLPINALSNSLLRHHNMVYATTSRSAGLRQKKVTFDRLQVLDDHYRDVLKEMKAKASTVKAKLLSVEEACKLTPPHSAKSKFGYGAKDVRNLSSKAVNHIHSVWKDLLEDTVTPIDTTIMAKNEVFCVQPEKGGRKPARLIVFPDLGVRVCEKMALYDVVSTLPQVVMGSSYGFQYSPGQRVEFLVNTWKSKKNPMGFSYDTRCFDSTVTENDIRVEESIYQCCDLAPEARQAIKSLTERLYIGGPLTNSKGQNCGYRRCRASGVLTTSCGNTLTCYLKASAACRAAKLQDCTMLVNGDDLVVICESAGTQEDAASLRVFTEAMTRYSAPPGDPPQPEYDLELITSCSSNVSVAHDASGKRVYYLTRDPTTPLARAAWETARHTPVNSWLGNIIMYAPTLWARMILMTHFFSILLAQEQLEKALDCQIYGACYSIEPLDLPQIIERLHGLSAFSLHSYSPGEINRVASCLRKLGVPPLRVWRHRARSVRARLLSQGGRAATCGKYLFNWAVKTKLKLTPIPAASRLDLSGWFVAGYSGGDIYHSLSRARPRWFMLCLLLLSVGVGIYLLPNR
The assay can be described thus: Inhibition Assay. The conditions noted are these: pH 7.3; 25 °C.
Experimental: To measure inhibition of the enzymatic activity of the HCV NS5B RNA-dependent RNA polymerase by the nucleoside triphosphate compounds of the present invention, a radiolabeled nucleotide incorporation assay was used. […] The assay was then terminated by the addition of 500 mM EDTA (50 μL). The reaction mixture was transferred to a Millipore DE81 filter plate and the incorporation of labeled CTP is determined using Packard TopCount.
As to `C[C@@]1(N=[N+]=[N-])[C@H](O)[C@@H](COP(=O)(O)OP(=O)(O)OP(=O)(O)O)O[C@H]1c1cnc2c(N)ncnn12` [US9457039, 22], the IC50 was 0.93 µM.
For `C[C@@]1(N)[C@H](O)[C@@H](COP(=O)(O)OP(=O)(O)OP(=O)(O)O)O[C@H]1c1ccc2c(N)ncnn12` [US9457039, 24], 1.1 µM corresponded to half-maximal inhibition (IC50).
Take `C[C@@]1(N)[C@H](O)[C@@H](COP(=O)(O)OP(=O)(O)OP(=O)(O)O)O[C@H]1c1cnn2c(N)ncnc12` [US9457039, 25]: inhibition was half-maximal at 51 µM (IC50).
In turn, `C[C@@]1(N)[C@H](O)[C@@H](COP(=O)(O)OP(=O)(O)OP(=O)(O)O)O[C@H]1c1cnc2c(N)ncnn12` [US9457039, 23] came in with an IC50 of 6.7 µM.
